# Laboratory results reported in ChEMBL document CHEMBL1135276, “Novel estimation of lipophilic behaviour of polychlorinated biphenyls” (Bioorg Med Chem Lett, 2002).
# Experiment: Partition coefficient (logP)
# Conditions: octanol/water
row,Compound,logP
1,Clc1cc(Cl)c(Cl)c(-c2c(Cl)c(Cl)cc(Cl)c2Cl)c1Cl,7.15
2,"Clc1cc(Cl)c(-c2cc(Cl)c(Cl)cc2Cl)cc1Cl [2,2',4,4',5,5'-HEXACHLOROBIPHENYL]",6.8
3,Clc1cc(-c2cc(Cl)c(Cl)c(Cl)c2)cc(Cl)c1Cl,7.55
4,Clc1ccc(Cl)c(-c2cc(Cl)c(Cl)cc2Cl)c1,6.49
5,Clc1ccc(-c2ccc(Cl)cc2)cc1,5.58
6,Clc1ccc(-c2c(Cl)cc(Cl)c(Cl)c2Cl)c(Cl)c1Cl,6.99
7,Clc1c(Cl)c(Cl)c(-c2ccccc2)c(Cl)c1Cl,6.52
8,Clc1ccccc1-c1ccccc1Cl,4.73
9,Clc1ccc(Cl)c(-c2ccccc2Cl)c1,5.6
